Columns and labels:
[1] = target: T1, P450 2A6 (Homo sapiens, UniProt P11509); assay: Oxidation by P450 2A6 bicistronic membranes, HPLC; conditions: product peaks only with NADPH-generating system
T1 sequence (P11509 1-494): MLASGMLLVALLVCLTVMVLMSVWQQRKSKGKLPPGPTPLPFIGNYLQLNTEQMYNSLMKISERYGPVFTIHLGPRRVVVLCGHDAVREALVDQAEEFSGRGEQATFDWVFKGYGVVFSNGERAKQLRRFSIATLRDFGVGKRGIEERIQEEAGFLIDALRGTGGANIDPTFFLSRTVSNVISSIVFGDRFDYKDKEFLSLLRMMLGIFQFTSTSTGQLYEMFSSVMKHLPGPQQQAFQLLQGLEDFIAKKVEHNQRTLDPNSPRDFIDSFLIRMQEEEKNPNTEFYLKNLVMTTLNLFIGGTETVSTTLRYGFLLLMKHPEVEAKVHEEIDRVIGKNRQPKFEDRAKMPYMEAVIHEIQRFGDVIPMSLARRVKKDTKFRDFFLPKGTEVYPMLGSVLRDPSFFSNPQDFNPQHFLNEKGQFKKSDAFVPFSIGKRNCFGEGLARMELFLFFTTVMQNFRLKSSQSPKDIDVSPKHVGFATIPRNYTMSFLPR

[2] = target: T2, P450 2A13 (Homo sapiens, UniProt Q16696); assay: Oxidation by P450 2A13 bicistronic membranes, HPLC; conditions: for metabolism (HPLC): product peaks only with NADPH-generating system; for Formation of oxygenated products on LC-MS analysis: results not shown
T2 sequence (Q16696 1-494): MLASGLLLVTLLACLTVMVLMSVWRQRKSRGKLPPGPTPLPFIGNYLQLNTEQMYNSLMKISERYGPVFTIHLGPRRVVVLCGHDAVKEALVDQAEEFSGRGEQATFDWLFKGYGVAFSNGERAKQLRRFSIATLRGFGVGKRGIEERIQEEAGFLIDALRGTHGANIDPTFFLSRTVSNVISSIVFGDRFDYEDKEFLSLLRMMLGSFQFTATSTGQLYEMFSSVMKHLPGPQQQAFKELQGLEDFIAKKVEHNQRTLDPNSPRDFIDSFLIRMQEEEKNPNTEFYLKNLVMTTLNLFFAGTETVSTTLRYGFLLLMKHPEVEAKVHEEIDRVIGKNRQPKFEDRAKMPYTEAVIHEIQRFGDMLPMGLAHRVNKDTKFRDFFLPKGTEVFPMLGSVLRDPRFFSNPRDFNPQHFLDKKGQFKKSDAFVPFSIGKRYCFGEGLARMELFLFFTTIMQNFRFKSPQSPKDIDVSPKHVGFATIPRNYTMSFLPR

[3] = target: T2, P450 2A13; assay: Spectral binding titration; conditions: P450 2A13
[4] = test system: P450 2A13; assay: Spectral binding titration; design: species or system human; conditions: P450 2A13 vs P450 2A6
[5] = target: T1, P450 2A6; assay: Spectral binding titration; conditions: P450 2A6 1.0 μM, pH 7.4; means and S.E.
[6] = target: T3, P450 1B1 (1B1.3, L432V) (Homo sapiens, UniProt Q16678, L432V); assay: Oxidation by P450 1B1 bicistronic membranes, HPLC; conditions: P450 1B1.3; Figure 5
T3 sequence (Q16678 1-543 L432V): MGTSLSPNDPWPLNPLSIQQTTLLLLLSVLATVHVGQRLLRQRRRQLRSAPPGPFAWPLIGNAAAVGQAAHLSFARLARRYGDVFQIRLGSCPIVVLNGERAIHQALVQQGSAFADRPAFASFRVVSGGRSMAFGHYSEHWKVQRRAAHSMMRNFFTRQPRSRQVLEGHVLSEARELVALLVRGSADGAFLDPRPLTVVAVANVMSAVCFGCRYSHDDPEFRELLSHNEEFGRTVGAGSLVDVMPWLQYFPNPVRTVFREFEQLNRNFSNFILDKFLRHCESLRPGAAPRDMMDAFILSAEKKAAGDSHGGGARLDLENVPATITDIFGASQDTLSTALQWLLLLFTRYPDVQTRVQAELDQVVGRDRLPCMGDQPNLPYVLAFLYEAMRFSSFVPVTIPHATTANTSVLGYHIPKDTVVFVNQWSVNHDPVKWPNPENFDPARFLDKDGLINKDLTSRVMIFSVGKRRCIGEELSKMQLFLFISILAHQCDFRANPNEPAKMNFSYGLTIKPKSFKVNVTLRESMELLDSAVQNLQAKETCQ

[7] = target: T4, P450 1A2 (Homo sapiens, UniProt P05177); assay: Oxidation by P450 1A2 bicistronic membranes, HPLC; conditions: Figure 5
T4 sequence (P05177 1-516): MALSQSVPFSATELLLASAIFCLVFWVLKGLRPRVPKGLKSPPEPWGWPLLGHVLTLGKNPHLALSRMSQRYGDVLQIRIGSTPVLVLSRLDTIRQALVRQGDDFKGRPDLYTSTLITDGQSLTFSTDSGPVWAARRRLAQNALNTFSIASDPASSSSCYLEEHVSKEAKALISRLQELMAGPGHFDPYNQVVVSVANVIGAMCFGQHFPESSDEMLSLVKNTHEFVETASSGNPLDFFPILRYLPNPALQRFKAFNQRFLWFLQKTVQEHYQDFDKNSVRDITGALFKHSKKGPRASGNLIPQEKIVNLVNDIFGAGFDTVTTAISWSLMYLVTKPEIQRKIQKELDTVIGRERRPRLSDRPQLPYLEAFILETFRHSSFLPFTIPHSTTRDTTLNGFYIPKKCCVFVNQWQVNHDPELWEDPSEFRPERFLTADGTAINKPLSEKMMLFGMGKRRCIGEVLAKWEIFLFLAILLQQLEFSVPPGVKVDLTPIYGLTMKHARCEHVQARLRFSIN

[8] = target: T5, P450 1B1 (Homo sapiens, UniProt Q16678, L432V); assay: 7-Ethoxyresorufin O-deethylation by P450 1B1
T5 sequence (Q16678 1-543 L432V): T3 sequence (Q16678 1-543 L432V)

[9] = target: T4, P450 1A2; assay: 7-Ethoxyresorufin O-deethylation by P450 1A2
[10] = target: T6, P450 1A1 (Homo sapiens, UniProt P04798); assay: 7-Ethoxyresorufin O-deethylation by P450 1A1
T6 sequence (P04798 1-512): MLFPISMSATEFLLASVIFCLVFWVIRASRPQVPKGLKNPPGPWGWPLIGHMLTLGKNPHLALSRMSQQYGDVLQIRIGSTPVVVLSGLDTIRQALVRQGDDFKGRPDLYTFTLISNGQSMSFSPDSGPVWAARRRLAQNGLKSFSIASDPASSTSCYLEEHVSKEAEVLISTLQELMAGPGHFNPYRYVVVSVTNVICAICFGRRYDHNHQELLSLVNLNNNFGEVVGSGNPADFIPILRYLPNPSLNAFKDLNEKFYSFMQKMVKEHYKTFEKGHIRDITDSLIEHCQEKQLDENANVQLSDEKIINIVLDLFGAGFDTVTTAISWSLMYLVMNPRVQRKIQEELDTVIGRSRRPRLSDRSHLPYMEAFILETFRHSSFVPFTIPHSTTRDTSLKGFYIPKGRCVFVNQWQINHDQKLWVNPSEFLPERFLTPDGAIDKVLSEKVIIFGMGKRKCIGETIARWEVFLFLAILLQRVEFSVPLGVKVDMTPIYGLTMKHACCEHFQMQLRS

SMILES | metabolism (HPLC) [1] | metabolism (HPLC) [2] | other results
c1ccc(-c2ccccc2)cc1 [biphenyl] | yes | yes | ΔAmax of Type I binding spectral change [3]: 0.045
C#Cc1ccc2ccccc2c1 [2EN, 2-ethynylnaphthalene] | yes | yes | ΔAmax/Ks ratio with P450 2A13 relative to that with P450 2A6 [4]: about 10 fold
C#Cc1cc2ccccc2c2ccccc12 [9EPh, 9-ethynylphenanthrene] |  | not detected | Type I spectra Ks (spectral dissociation constant) [5]: ND (10 μM)
CC#Cc1ccc2ccc3ccccc3c2c1 [3PPh, 3-(1-propynyl)phenanthrene] |  | yes | Type I spectra Ks (spectral dissociation constant) [5]: ND (10 μM)
C#Cc1ccc2c(ccc3ccccc32)c1 [2EPh, 2-ethynylphenanthrene] | yes | yes | Oxidation (product formation on HPLC) [6]: oxidized 2EPh at lower levels than P450s 2A13 and 2A6; Formation of oxygenated products on LC-MS analysis [2]: formation of oxygenated products; Oxidation (product formation on HPLC) [7]: oxidized 2EPh at lower levels than P450s 2A13 and 2A6
C#Cc1ccc2ccc3ccccc3c2c1 [3EPh, 3-ethynylphenanthrene] | yes | yes | Formation of oxygenated products on LC-MS analysis [2]: formation of oxygenated products
C#CCOCc1ccc(-c2ccccc2)cc1 [4BMPE, 4-biphenyl methyl propargyl ether] |  | not detected | 
c1ccc2c(c1)ccc1ccccc12 [phenanthrene] | yes | yes | ΔAmax of Type I binding spectral change [3]: 0.063
CC#Cc1ccc(-c2ccccc2)cc1 [4PB, 4-propynylbiphenyl] |  | not detected | 
C#CCOCc1ccccc1-c1ccccc1 [2BMPE, 2-biphenyl methyl propargyl ether] |  | not detected | 
CC#Cc1ccc2c(ccc3ccccc32)c1 [2PPh, 2-(1-propynyl)phenanthrene] | yes | yes | 
CCOc1ccc2nc3ccc(=O)cc-3oc2c1 [7-ethoxyresorufin] |  |  | Catalytic activity, 7-ethoxyresorufin O-deethylation (nmol product formed/min/nmol P450) [8]: 14 min⁻¹; Catalytic activity, 7-ethoxyresorufin O-deethylation (nmol product formed/min/nmol P450) [9]: 3.2 min⁻¹; Catalytic activity, 7-ethoxyresorufin O-deethylation (nmol product formed/min/nmol P450) [10]: 35 min⁻¹
CCC#Cc1ccc(-c2ccccc2)cc1 [4BuB, 4-butynylbiphenyl] |  | not detected | 
C#CCOc1ccccc1-c1ccccc1OCC#C [22BDPE, 2,2′-biphenyl dipropagyl ether] |  | not detected | 
C#CCOc1ccccc1-c1ccccc1 [2BPE, 2-biphenyl propargyl ether] |  | yes | 
CC#Cc1cc2ccccc2c2ccccc12 [9PPh, 9-(1-propynyl)phenanthrene] |  | not detected | 
C#Cc1ccc(-c2ccccc2)cc1 [4EB, 4-ethynylbiphenyl] | not detected | not detected | 
C#CCOc1ccc(-c2ccccc2)cc1 [4BPE, 4-biphenyl propargyl ether] | yes | yes | 
C#CCOc1ccc(-c2ccc(OCC#C)cc2)cc1 [44BDPE, 4,4′-biphenyl dipropargyl ether] | not detected | not detected | 
